Experimental findings from US20240228468A1, “N-(6-((OCTAHYDROCYCLOPENTA[C]PYRROL-5-YI)AMINO)PYRIDAZIN-3-YL)PHENYL)CARBOXAMIDE AND (6- ((OCTAHYDROCYCLOPENTA[C]PYRROL-5-YL)AMINO)PYRIDAZIN-3-YL)BENZAMIDE DERIVATIVES AS MACHR M4 ANTAGONISTS FOR THE TREATMENT OF NEURODEGENERATIVE DISORDERS” (Vanderbilt University, priority 2021, published 2024) are described below.

Each structure is given as a SMILES string.

This experiment deals with T1, Human M4 (Homo sapiens, UniProt P08173).
T1 construct: expressed in transfected cells; host or cells: CHO-K1 (ATCC), co-transfected with chimeric G protein Gqi5
T1 sequence (P08173 1-479): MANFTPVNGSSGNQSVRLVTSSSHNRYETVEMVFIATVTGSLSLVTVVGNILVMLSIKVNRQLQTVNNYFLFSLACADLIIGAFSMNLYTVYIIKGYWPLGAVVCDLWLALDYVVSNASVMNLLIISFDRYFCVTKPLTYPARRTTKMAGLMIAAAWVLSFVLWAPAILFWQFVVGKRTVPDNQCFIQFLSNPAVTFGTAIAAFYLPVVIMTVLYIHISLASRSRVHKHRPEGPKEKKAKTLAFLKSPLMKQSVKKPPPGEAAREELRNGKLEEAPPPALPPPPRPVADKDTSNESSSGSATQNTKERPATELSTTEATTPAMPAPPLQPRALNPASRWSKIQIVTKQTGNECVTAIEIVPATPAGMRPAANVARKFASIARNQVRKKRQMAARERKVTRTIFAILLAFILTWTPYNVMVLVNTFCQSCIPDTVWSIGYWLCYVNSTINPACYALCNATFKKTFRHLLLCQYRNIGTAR
Put plainly: mAChR M4 cell-based functional assay (calcium flux, antagonism of EC80 acetylcholine response). The note with it: M4/Gqi5/CHO-K1 cells; for remaining activity at 30 µM / Human M4 Emin (% ACh maximum at 30 μM): % ACh maximum at 30 μM; for remaining activity at 30 µM: read-out: Human M4 Emin (% ACh maximum at 30 μM); for IC50: concentration-dependent decrease of the response elicited by an EC80 concentration of acetylcholine. The procedure:
Human or rat M4 cDNA, along with the chimeric G protein Gqi5, were transfected into Chinese hamster ovary (CHO-K1) cells purchased from the American Type Culture Collection using Lipofectamine2000. M4/Gqi5/CHO cells were grown in Ham's F-12 medium containing 10% heat-inactivated fetal bovine serum (FBS), 20 mM HEPES, 500 μg/mL G418 sulfate, and 200 μg/mL Hygromycin B.
For high throughput measurement of agonist-evoked increases in intracellular calcium, CHO-K1 cells stably expressing muscarinic receptors were plated in growth medium lacking G418 and hygromycin at 15,000 cells/20 μL/well in Greiner 384-well black-walled, tissue culture (TC)-treated, clear-bottom plates (VWR). Cells were incubated overnight at 37° C. and 5% CO2. The next day, cells were washed using an ELX 405 (BioTek) with assay buffer; the final volume was then aspirated to 20 μL. Next, 20 μL of a 2.3 μM stock of Fluo-4/acetoxymethyl ester (Invitrogen, Carlsbad, CA), prepared as a 2.3 mM stock in DMSO and mixed in a 1:1 ratio with 10% (w/v) Pluronic F-127 and diluted in assay buffer, was added to the wells and the cell plates were incubated for 50 min at 37° C. and 5% CO2. Dye was removed by washing with the ELX 405 and the final volume was aspirated to 20 μL. Compound master plates were formatted in a 10 point concentration-response curve (CRC) format (1:3 dilutions) in 100% DMSO with a starting concentration of 10 or 1 mM using a BRAVO liquid handler (Agilent). Test compound CRCs were then transferred to daughter plates (240 nL) using the Echo acoustic plate reformatter (Labcyte, Sunnyvale, CA) and then diluted into assay buffer (40 μL) to a 2× stock using a Thermo Fisher Combi (Thermo Fisher Scientific, Waltham, MA).
Calcium flux was measured using the Functional Drug Screening System (FDSS) 6000 or 7000 (Hamamatsu Corporation, Tokyo, Japan) as an increase in the fluorescent static ratio. Compounds were applied to cells (20 μL, 2×) using the automated system of the FDSS at 2 seconds into the protocol and the data were collected at 1 Hz. At 143 s, 10 μL of an EC20 concentration of the muscarinic receptor agonist acetylcholine was added (5×), followed by the addition of 12 μL of an EC80 concentration of acetylcholine at the 268 s time point (5×). Agonist activity was analyzed as a concentration-dependent increase in calcium mobilization upon compound addition. Positive allosteric modulator activity was analyzed as a concentration-dependent increase in the EC20 acetylcholine response. Antagonist activity was analyzed as a concentration-dependent decrease in the EC80 acetylcholine response; for the purposes of the tables herein, an IC50 (inhibitory concentration 50) was calculated as a concentration-dependent decrease of the response elicited by an EC80 concentration of acetylcholine. Concentration-response curves were generated using a four-parameter logistical equation in XLFit curve fitting software (IDBS, Bridgewater, NJ) for Excel (Microsoft, Redmond, WA) or Prism (GraphPad Software, Inc., San Diego, CA) or the Dotmatics software platform (Dotmatics, Bishop's Stortford, UK).
Compounds were synthesized as described above. Activity (IC50 and Emin) was determined in the mAChR M4 cell-based functional assay as described above and the data are shown in Table 2.

In the case of `O=C(Nc1cc(F)c(F)c(-c2ccc(N[C@H]3C[C@@H]4CN(CC5CCOCC5)C[C@@H]4C3)nn2)c1)C1(F)CC1` [Compound A12, N-(3,4-difluoro-5-(6-(((3aR,5s,6aS)-2-((tetrahydro-2H-pyran-4-yl)methyl)octahydrocyclopenta[c]pyrrol-5-yl)amino)pyridazin-3-yl)phenyl)-1-fluorocyclopropane-1-carboxamide], the remaining activity at 30 µM was determined as 4% and the IC50 stood at 0.085 µM.
For the compound `[2H]C([2H])([2H])C(=O)Nc1ccc(-c2ccc(N[C@H]3C[C@@H]4CN(C([2H])([2H])C5CCOCC5)C[C@@H]4C3)nn2)cc1` (single isomer, unassigned) [Compound B6], the “Human M4 Emin (% ACh maximum at 30 μM)” value worked out at 3% and the IC50 worked out at 0.0012 µM.
Turning to `[2H]C([2H])(C1CCOCC1)N1C[C@H]2C[C@H](Nc3ccc(-c4cc(C(=O)NC)ccc4F)nn3)C[C@H]2C1` [Compound A69, 4-fluoro-N-methyl-3-(6-(((3aR,5s,6aS)-2-((tetrahydro-2H-pyran-4-yl)methyl-d2)octahydrocyclopenta[c]pyrrol-5-yl)amino)pyridazin-3-yl)benzamide], the remaining activity at 30 µM amounted to 5% and the IC50 was 0.12 µM.
With `CC1(O)CN(C(=O)c2ccc(-c3ccc(N[C@H]4C[C@@H]5CN(CC6CCOCC6)C[C@@H]5C4)nn3)cc2)C1` [Compound A23, (3-hydroxy-3-methylazetidin-1-yl)(4-(6-(((3aR,5s,6aS)-2-((tetrahydro-2H-pyran-4-yl)methyl)octahydrocyclopenta[c]pyrrol-5-yl)amino)pyridazin-3-yl)phenyl)methanone], the remaining activity at 30 µM was found to be 3% and the IC50 worked out at 0.015 µM.
For `CC(=O)Nc1ccc(-c2ccc(N[C@H]3C[C@@H]4CN(CC5(C)COC5)C[C@@H]4C3)nn2)cc1` [Compound A6, N-(4-(6-(((3aR,5s,6aS)-2-((3-methyloxetan-3-yl)methyl)octahydrocyclopenta[c]pyrrol-5-yl)amino)pyridazin-3-yl)phenyl)acetamide], the remaining activity at 30 µM is 16% and the IC50 came out at 4.6 µM.
For the compound `O=C(Nc1cc(F)c(F)c(-c2ccc(N[C@H]3C[C@@H]4CN(CC5CCOCC5)C[C@@H]4C3)nn2)c1)C1(O)CCC1` [Compound A13, N-(3,4-difluoro-5-(6-(((3aR,5s,6aS)-2-((tetrahydro-2H-pyran-4-yl)methyl)octahydrocyclopenta[c]pyrrol-5-yl)amino)pyridazin-3-yl)phenyl)-1-hydroxycyclobutane-1-carboxamide], the remaining activity at 30 µM came out at 4% and the IC50 is 0.064 µM.
On to `[2H]C([2H])(C1CCOCC1)N1C[C@H]2C[C@H](Nc3ccc(-c4cc(F)c(C(N)=O)c(F)c4F)nn3)C[C@H]2C1` [Compound A65, 2,3,6-trifluoro-4-(6-(((3aR,5s,6aS)-2-((tetrahydro-2H-pyran-4-yl)methyl-d2)octahydrocyclopenta[c]pyrrol-5-yl)amino)pyridazin-3-yl)benzamide], for which the remaining activity at 30 µM was 5% and the IC50 is 0.0063 µM.
As to `CCC(=O)Nc1ccc(-c2ccc(N[C@H]3C[C@@H]4CN(CC5CCOCC5)C[C@@H]4C3)nn2)cc1` [Compound A39, N-(4-(6-(((3aR,5s,6aS)-2-((tetrahydro-2H-pyran-4-yl)methyl)octahydrocyclopenta[c]pyrrol-5-yl)amino)pyridazin-3-yl)phenyl)propionamide], the remaining activity at 30 µM was determined as 3% and the IC50 was determined as 0.0031 µM.
Turning to `[2H]C([2H])([2H])C(=O)Nc1ccccc1-c1ccc(N[C@H]2C[C@@H]3CN(CC4CCOCC4)C[C@@H]3C2)nn1` [Compound B3, N-(2-(6-(((3aR,5s,6aS)-2-((tetrahydro-2H-pyran-4-yl)methyl)octahydrocyclopenta [c]pyrrol-5-yl)amino)pyridazin-3-yl)phenyl) acetamide-2,2,2-d3], the “Human M4 Emin (% ACh maximum at 30 μM)” value is reported as 4% and the IC50 is 0.12 µM.
Consider `CC(=O)Nc1ccc(-c2ccc(N[C@H]3C[C@@H]4CN(Cc5ccccc5C(F)(F)F)C[C@@H]4C3)nn2)cc1` [Compound A7, N-(4-(6-(((3aR,5s,6aS)-2-(2-(trifluoromethyl)benzyl)octahydrocyclopenta [c]pyrrol-5-yl)amino)pyridazin-3-yl)phenyl)acetamide], for which the remaining activity at 30 µM was found to be 10% and the half-inhibitory concentration (IC50) was determined as 1.1 µM.
`CNC(=O)c1cccc(-c2ccc(N[C@H]3C[C@@H]4CN(CC5CCOCC5)C[C@@H]4C3)nn2)c1` [Compound A41, N-methyl-3-(6-(((3aR,5s,6aS)-2-((tetrahydro-2H-pyran-4-yl)methyl)octahydrocyclopenta[c]pyrrol-5-yl)amino)pyridazin-3-yl)benzamide]: the remaining activity at 30 µM stood at 5% and the IC50 came out at 0.012 µM.
`CC(=O)Nc1cccc(-c2ccc(N[C@H]3C[C@@H]4CN(CC5CCOCC5)C[C@@H]4C3)nn2)c1` [Compound A29, N-(3-(6-(((3aR,5s,6aS)-2-((tetrahydro-2H-pyran-4-yl)methyl)octahydrocyclopenta[c]pyrrol-5-yl)amino)pyridazin-3-yl)phenyl)acetamide]: the remaining activity at 30 µM came to 3% and the IC50 was determined as 0.034 µM.
On to `CNC(=O)c1ccccc1-c1ccc(N[C@H]2C[C@@H]3CN(CC4CCOCC4)C[C@@H]3C2)nn1` [Compound A45, N-methyl-2-(6-(((3aR,5s,6aS)-2-((tetrahydro-2H-pyran-4-yl)methyl)octahydrocyclopenta[c]pyrrol-5-yl)amino)pyridazin-3-yl)benzamide], for which the remaining activity at 30 µM is 6% and the IC50 stood at 0.18 µM.
With `CC(=O)Nc1ccc(-c2ccc(N[C@H]3C[C@@H]4CN(Cc5ccc6c(c5)OCO6)C[C@@H]4C3)nn2)cc1` [Compound A4, N-(4-(6-(((3aR,5s,6aS)-2-(benzo[d][1,3]dioxol-5-ylmethyl)octahydrocyclopenta[c]pyrrol-5-yl)amino)pyridazin-3-yl)phenyl)acetamide], the remaining activity at 30 µM is 3% and the IC50 was determined as 0.00019 µM.
In the same order, the values of `[2H]C([2H])([2H])C(=O)Nc1cccc(-c2ccc(N[C@H]3C[C@@H]4CN(CC5CCOCC5)C[C@@H]4C3)nn2)c1` [Compound A61, N-(3-(6-(((3aR,5s,6aS)-2-((tetrahydro-2H-pyran-4-yl)methyl)octahydrocyclopenta[c]pyrrol-5-yl)amino)pyridazin-3-yl)phenyl)acetamide-2,2,2-d3] are 3% and 0.012 µM.
The corresponding values for `[2H]C([2H])(C1CCOCC1)N1C[C@H]2C[C@H](Nc3ccc(-c4ccccc4C(=O)NC)nn3)C[C@H]2C1` [Compound A48, N-methyl-2-(6-(((3aR,5s,6aS)-2-((tetrahydro-2H-pyran-4-yl)methyl-d2)octahydrocyclopenta[c]pyrrol-5-yl)amino)pyridazin-3-yl)benzamide] are 4% and 0.074 µM.
